In ChEMBL document CHEMBL1275421, “Reduced Candida glabrata susceptibility secondary to an FKS1 mutation developed during candidemia treatment” (2008):
≈ marks a conversion by molar mass, not a printed value. *1 amine or outer side, *2 acyl side, *3 side chain or, on linkers, in order; H or OH if unused. Where a SMILES comes first, the peptide text is derived from it. Bridges are numbered along the chain shown (N, C = ends). [ ]: non-standard residue; d: D form. The star is where a group is joined. hTyr(3S-OH,4S-OH,3'-OSO3H) = N[C@H](C(=O)O)[C@H](O)[C@@H](O)c1ccc(O)c(OS(=O)(=O)O)c1; pTerphenylCO(4''-OnC5H11) = CCCCCOc1ccc(-c2ccc(-c3ccc(C(=O)*)cc3)cc2)cc1; Orn(4R-OH,5R-OH) = O=C([C@H](C[C@@H](O)[C@@H](O)N[*:3])N[*:1])[*:2]; hTyr(3S-OH,4S-OH) = N[C@H](C(=O)O)[C@H](O)[C@@H](O)c1ccc(O)cc1; Pro(3S-OH,4S-Me) = C[C@H]1CN[C@H](C(=O)O)[C@H]1O; X1 = CCCCCOc1ccc(-c2cc(-c3ccc(C(=O)*)cc3)no2)cc1; Gln(3R-OH) = NC(=O)C[C@@H](O)[C@H](N)C(=O)O; Hyp = O=C(O)[C@@H]1C[C@@H](O)CN1

Assays:
Format in all cases: functional
Nakaseomyces glabratus [1] = test: Antifungal activity against Candida glabrata 06-3170 harboring […] T1896G and D632E mutant obtained from patient on compound therapy by M27-A2 method
Nakaseomyces glabratus [2] = test: Antifungal activity against Candida glabrata 06-3168 obtained from patient on compound therapy by M27-A2 method
Nakaseomyces glabratus [3] = test: Antifungal activity against Candida glabrata 06-3169 harboring […] T1896G and D632E mutant obtained from patient on compound therapy by M27-A2 method
Pichia kudriavzevii = test: Antifungal activity against Candida krusei obtained from patient with acute myeloid leukemia

| Compound | MIC (Nakaseomyces glabratus [1]) [µg/mL] | MIC (Nakaseomyces glabratus [2]) [µg/mL] | MIC (Nakaseomyces glabratus [3]) [µg/mL] | MIC (Pichia kudriavzevii) [µg/mL] |
| --- | --- | --- | --- | --- |
| C[C@@H]1[C@H](O)[C@@H](C)/C=C/C=C/C=C/C=C/C=C/C=C/C=C/[C@H](O[C@@H]2O[C@H](C)[C@@H](O)[C@H](N)[C@@H]2O)C[C@@H]2O[C@](O)(C[C@@H](O)C[C@@H](O)[C@H](O)CC[C@@H](O)C[C@@H](O)CC(=O)O[C@H]1C)C[C@H](O)[C@H]2C(=O)O [AMPHOTERICIN B] | 0.125 (≈ 0.135 µM) | 0.125 (≈ 0.135 µM) | 0.125 (≈ 0.135 µM) |  |
| CCCCCOc1ccc(-c2ccc(-c3ccc(C(=O)N[C@H]4C[C@@H](O)[C@@H](O)NC(=O)[C@@H]5[C@@H](O)[C@@H](C)CN5C(=O)[C@H]([C@@H](C)O)NC(=O)[C@H]([C@H](O)[C@@H](O)c5ccc(O)cc5)NC(=O)[C@@H]5C[C@@H](O)CN5C(=O)[C@H]([C@@H](C)O)NC4=O)cc3)cc2)cc1 [ANIDULAFUNGIN] ({pTerphenylCO(4''-OnC5H11)}-[Orn(4R-OH,5R-OH)]T[Hyp][hTyr(3S-OH,4S-OH)]T[Pro(3S-OH,4S-Me)]; lactam 1-C) | > 2 | 0.03 (≈ 0.0263 µM) | > 2 |  |
| CC[C@H](C)C[C@H](C)CCCCCCCCC(=O)N[C@H]1C[C@@H](O)[C@@H](NCCN)NC(=O)[C@@H]2[C@@H](O)CCN2C(=O)[C@H]([C@H](O)CCN)NC(=O)[C@H]([C@H](O)[C@@H](O)c2ccc(O)cc2)NC(=O)[C@@H]2C[C@@H](O)CN2C(=O)[C@H]([C@@H](C)O)NC1=O [CASPOFUNGIN] | > 2 | 0.06 (≈ 0.0549 µM) | > 2 | 2 (≈ 1.83 µM) |
| OC(Cn1cncn1)(Cn1cncn1)c1ccc(F)cc1F [FLUCONAZOLE] | 1 (≈ 3.27 µM) | 1 (≈ 3.27 µM) | 1 (≈ 3.27 µM) |  |
| CCCCCOc1ccc(-c2cc(-c3ccc(C(=O)N[C@H]4C[C@@H](O)[C@@H](O)NC(=O)[C@@H]5[C@@H](O)[C@@H](C)CN5C(=O)[C@H]([C@H](O)CC(N)=O)NC(=O)[C@H]([C@H](O)[C@@H](O)c5ccc(O)c(OS(=O)(=O)O)c5)NC(=O)[C@@H]5C[C@@H](O)CN5C(=O)[C@H]([C@@H](C)O)NC4=O)cc3)no2)cc1 [MICAFUNGIN] (X1-[Orn(4R-OH,5R-OH)]T[Hyp][hTyr(3S-OH,4S-OH,3'-OSO3H)][Gln(3R-OH)][Pro(3S-OH,4S-Me)]; lactam 1-C) | > 2 | 0.06 (≈ 0.0472 µM) | > 2 |  |
| C[C@@H](c1ncncc1F)[C@](O)(Cn1cncn1)c1ccc(F)cc1F [VORICONAZOLE] | 0.03 (≈ 0.0859 µM) | 0.03 (≈ 0.0859 µM) | 0.03 (≈ 0.0859 µM) |  |
